According to PubChem BioAssay (NCI):
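Each compound was tested at five concentrations against cells in 96-well plates for 48 hours. TGI denotes the concentration required for complete inhibition of growth.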

Tests used:
Experiment in all cases: inhibition of tumour cell growth, NCI panel, 48 h
HCT-15 colon = test system: HCT-15 colon
ACHN renal = test system: ACHN renal
MALME-3M melanoma = test system: MALME-3M melanoma
NCI-H23 lung = test system: NCI-H23 lung
SK-OV-3 ovarian = test system: SK-OV-3 ovarian
SR leukemia = test system: SR leukemia
T-47D breast = test system: T-47D breast
SW-620 colon = test system: SW-620 colon
U251 CNS = test system: U251 CNS
NCI/ADR-RES ovarian = test system: NCI/ADR-RES ovarian
HOP-62 NSCLC = test system: HOP-62 NSCLC
SK-MEL-5 melanoma = test system: SK-MEL-5 melanoma
CAKI-1 renal = test system: CAKI-1 renal
RPMI-8226 leukemia = test system: RPMI-8226 leukemia
786-0 renal = test system: 786-0 renal
HT29 colon = test system: HT29 colon
HCT-116 colon = test system: HCT-116 colon
MDA-N = test system: MDA-N
LOX IMVI melanoma = test system: LOX IMVI melanoma
SF-539 CNS = test system: SF-539 CNS

| Compound | TGI (HCT-15 colon) | TGI (ACHN renal) | TGI (MALME-3M melanoma) | TGI (NCI-H23 lung) | TGI (SK-OV-3 ovarian) | TGI (SR leukemia) | TGI (T-47D breast) | TGI (SW-620 colon) | TGI (U251 CNS) | TGI (NCI/ADR-RES ovarian) | TGI (HOP-62 NSCLC) | TGI (SK-MEL-5 melanoma) | TGI (CAKI-1 renal) | TGI (RPMI-8226 leukemia) | TGI (786-0 renal) | TGI (HT29 colon) | TGI (HCT-116 colon) | TGI (MDA-N) | TGI (LOX IMVI melanoma) | TGI (SF-539 CNS) |
| --- | --- | --- | --- | --- | --- | --- | --- | --- | --- | --- | --- | --- | --- | --- | --- | --- | --- | --- | --- | --- |
| Cc1c(CN2CCOCC2)c(CN2CCOCC2)c(C)n1-c1ccc(Cl)cn1 | > 100 µM | > 100 µM | > 100 µM | > 100 µM | > 100 µM | > 100 µM | > 100 µM | > 100 µM | > 100 µM | > 100 µM | > 100 µM | > 100 µM | > 100 µM | > 100 µM | > 100 µM | > 100 µM | > 100 µM | > 100 µM |  |  |
| COC(=O)C(Cc1c(-c2[nH]c3ccccc3c2CC(NC(C)=O)C(=O)OC)[nH]c2ccccc12)NC(C)=O (stereo not drawn) | > 100 µM | > 100 µM | > 100 µM | > 100 µM | > 100 µM |  | > 100 µM | > 100 µM | > 100 µM | > 100 µM | > 100 µM | > 100 µM | > 100 µM | > 100 µM | > 100 µM | > 100 µM | > 100 µM | > 100 µM | > 100 µM | > 100 µM |
| COC(=O)c1ccccc1C1CN=NC12Cc1cc3c(cc1C2=O)CCC3 (stereo not drawn) | > 100 µM | > 100 µM | > 100 µM | > 100 µM | > 100 µM |  | > 100 µM | > 100 µM | > 100 µM | > 100 µM | > 100 µM | 48.7 µM | > 100 µM |  | > 100 µM | > 100 µM | > 100 µM | > 100 µM | > 100 µM | > 100 µM |
| CN(C)CCNc1ncnc2nc(-c3ccccc3)c(-c3ccccc3)nc12 |  |  | > 100 µM | > 100 µM | > 100 µM |  | > 100 µM | > 100 µM | > 100 µM | > 100 µM | > 100 µM | > 100 µM | > 100 µM |  | > 100 µM | > 100 µM | > 100 µM | > 100 µM | > 100 µM | > 100 µM |
| C#CC(O)/C=C/C(O)CCCC(O)CC#CC(O)C#CCCCCC(O)/C=C/CCCCCC(=O)CCCCCCCCCCCCCC(O)C(O)C#CC(=O)O (stereo not drawn) | > 25 µM | > 25 µM | > 25 µM | > 25 µM | > 25 µM | 19.1 µM | > 25 µM |  | > 25 µM | > 25 µM | > 25 µM | > 25 µM | > 25 µM | > 25 µM | > 25 µM | > 25 µM | > 25 µM | > 25 µM | 9.88 µM |  |
| COC1=CC(=O)C2=C(C1=O)[C@H]1CC[C@]3(C)C(=O)CC[C@H]3[C@@H]1CC2 | > 100 µM | 79.3 µM |  | > 100 µM | > 100 µM | > 100 µM | 57.2 µM | 67.7 µM | > 100 µM | > 100 µM | > 100 µM | 33.2 µM | 77 µM | 81.3 µM | 53.2 µM | 75.3 µM | 34.1 µM | 65.1 µM | 35.4 µM | 38.1 µM |
| COC1(OC)CCCCCCCCC(OC)(OC)CCCCCCCC1 | > 100 µM | > 100 µM | > 100 µM | > 100 µM | > 100 µM | > 100 µM | > 100 µM | > 100 µM | > 100 µM | > 100 µM | > 100 µM | > 100 µM | > 100 µM |  | > 100 µM | > 100 µM | > 100 µM | > 100 µM | > 100 µM | > 100 µM |
| CC(=O)O[C@H]1[C@@H](OC2CCCC2(c2ccccc2)c2ccccc2)O[N+]([O-])=C[C@@H]1c1ccccc1 (stereo partly drawn) | 16.7 µM | 12.5 µM |  | 35.9 µM | 29 µM | > 20.3 µM | > 37.9 µM | 17.6 µM | 27.3 µM | 12.9 µM | 38.2 µM | 25.6 µM | 11 µM | 18.9 µM | 3.26 µM | 6.94 µM | 10.5 µM | 15.6 µM | 5.04 µM |  |
| CCc1n[nH]c(=O)n1-n1c(C)ccc1C | > 100 µM | > 100 µM | > 100 µM |  | > 100 µM | > 100 µM | > 100 µM | > 100 µM | > 100 µM | > 100 µM | > 100 µM | > 100 µM | > 100 µM | > 100 µM | > 100 µM | > 100 µM | > 100 µM | > 100 µM | > 100 µM |  |
| CNc1ccc(C)cc1S(=O)(=O)c1ccccc1[N+](=O)[O-] | > 100 µM | > 100 µM | > 100 µM | > 100 µM | > 100 µM | > 100 µM | > 100 µM | > 100 µM | > 100 µM | > 100 µM | > 100 µM | 46.1 µM |  | > 100 µM | > 100 µM | > 100 µM | > 100 µM | > 100 µM | > 100 µM | > 100 µM |
| C#CCC(O)c1ccc(OC)c(OCc2ccccc2)c1 (stereo not drawn) | > 100 µM | > 100 µM | > 100 µM | > 100 µM | > 100 µM |  | > 100 µM |  | > 100 µM | > 100 µM | > 100 µM | > 100 µM | > 100 µM | > 100 µM | > 100 µM | > 100 µM | > 100 µM | > 100 µM | > 100 µM | > 100 µM |
| COc1ccc(/C=N/NS(=O)(=O)c2ccc(/C=C3\NC(=O)NC3=O)cc2)cc1 | > 100 µM | > 100 µM | > 100 µM | > 100 µM | > 100 µM |  | > 100 µM | > 100 µM | > 100 µM | > 100 µM | > 100 µM | > 100 µM | > 100 µM | > 100 µM | > 100 µM | > 100 µM | > 100 µM | > 100 µM | > 100 µM |  |
